This experiment in a line: Inhibition Assay: A fusion protein comprising glutathione S transferase (GST) and human IRE-1α (GST-IRE-1α) obtained from a 500 ml baculovirus-infected insect cell culture can be used to measure IRE-1α activity in vitro.Five ul of a reaction mixture comprising 1x reaction buffer (5x reaction buffer is 100 mM Hepes pH 7.5, 250 mM KOAc, 2.5 mM MgCl2), 3 mM DTT, and 0.4% polyethylene glycol water is added to each well of 384 well plates. Twenty-five nanoliters of a 1 mM test compound solution are added to test wells. Three ul of a 128 ng/ml IRE-1α preparation are added to each test well and to positive control wells (final concentration 5.82 ng/well). Negative control wells contain only reaction mixture and test compound.After spinning the plates at 1200 rpm for 30 seconds, 3 ul of an IRE-1α human mini-XBP-1 mRNA stem-loop substrate 5'-[…]-3' (SEQ ID NO:1), labeled with the fluorescent dye Cy5 at the 5' end and Black Hole Quencher 2 (BH2) at the 3' end, are added to each well of a control plate. The plates are again spun at 1200 rpm for 30 seconds. Final concentrations for the assay are: 63 nM IRE-1α substrate, 5.82 ng IRE-1α protein, and 2.5 uM test compound. The plates are covered with lids and incubated for one hour at 30° C. The plates are then transferred to an ACQUEST microplate reader. Data is analyzed using data analysis software, and the percent activity of IRE-1α is calculated.
As for `O=C(C1CCN(c2ccc3ccc(O)c(CO)c3c2)C1)N1CCCCC1` (configuration not stated), the IC50 (in general, the concentration that inhibits the measured activity by half) was above 1 µM.
With `CN1CCN(c2ccc3ccc(O)c(CO)c3c2)CC1`, the IC50 was above 1 µM.
Regarding `OCc1c(O)ccc2ccc(N3CCCC3)cc12`, the IC50 was above 1 µM.
The result for `CN(Cc1ccccc1)C(=O)C1CCN(c2ccc3ccc(O)c(CO)c3c2)C1` (configuration not stated) reads above 1 µM.
Then `CN1CCN(C2CCN(c3ccc4ccc(O)c(CO)c4c3)C2)CC1` (configuration not stated), with above 1 µM.
Then `CN(Cc1ccccc1)C1CCN(c2ccc3c(C=O)c(O)ccc3c2)C1` (configuration not stated), with above 1 µM.
For the molecule `OCc1c(O)ccc2cc(N3CCOCC3)ccc12`, the IC50 was above 1 µM.

The values above are taken from ChEMBL document CHEMBL5725244, “IRE-1α inhibitors” (2016).
